Test results as given in patent EP3818828A1 (priority 2019, dated 2021).
Values joined by “and” are separate entries in the source; they are usually repeats but may differ in a detail not shown here. Equal entries are not always repeated. Where two headings read alike, the source gives them in different places.

How the values were obtained:
Phytophthora infestans [1] = assay: microbe, parasite or virus in culture; type: cell-based; settings: 1 mg/mL
[2] = tested on: zucchini, cucumber, flax, and tomato; assay: Crop safety in the field efficiency tests; type: in vivo; settings: at the test doses
From the text: (§1) The variety of zucchini was Zaoqing F1 (manufactured by Wuwei Dadi Seed Industry Co., Ltd.), which was sown on July 29th, 2016. The first application was started on August 26th, at the early onset of powdery mildew (the average disease index is 10.07). The instrument for application was Agrolex HD 400 Model hand operating knapsack sprayer, which employed a cone nozzle. Each agent was formulated into the desired concentrations according to the usage amount of the control clear water. Both sides of the leaves were sprayed evenly so that the leaves were wetted by the liquor without loss. 10% of 3-(3',4'-methylenedioxy phenyl)-N-n-propyl acrylamide EC and 14% of 3-(3',4'-methylenedioxy phenyl)-piperidine acrylate EC were both diluted at a concentration of 0.50 mg/mL (active ingredients); the control agent, 430 g/L of tebuconazole SC (manufactured by Yantai Keda Chemical Co., Ltd.) was also diluted at a concentration of 0.50 mg/mL (active ingredients); additionally clear water was used as the control. Thereafter, applications were conducted every 7 days consecutively for 4 times. 10 days after the last application, the number of sick leaves at each grade of powdery mildew was investigated for the whole plant following the grading standard of 9 grades, to calculate the disease index and the control effect.
The variety of flax is Zhangya No. 2. […]

Phytophthora infestans [3] = type: cell-based; settings: Phytophthora infestas; 1 mg/mL
Fusarium graminearum = assay: microbe, parasite or virus in culture; type: cell-based; settings: for Average Diameter of the Colony: 1 mg/mL; for inhibition at 1000 µg/mL: read-out: Inhibition Rate
E. polygoni = assay: In-vivo greenhouse control of marrow bean powdery mildew
Description: (§2) 3.88 g of 3-(3',4'-methylenedioxy phenyl)-N-n-propyl acrylamide was weighed and dissolved in 25 g of absolute ethyl alcohol, then 6 g of emulsifier 0203B was added, and mixed uniformly with stirring to get 10% of 3-(3',4'-methylenedioxy phenyl)-N-n-propyl acrylamide EC.
(§3) 5.61 g of 3-(3',4'-methylenedioxy phenyl)-piperidine acrylate was weighed and dissolved in 25 g of absolute ethyl alcohol, then 6 g of emulsifier 0203B was added, and mixed uniformly with stirring to get 14% of 3-(3',4'-methylenedioxy phenyl)-piperidine acrylate EC.
Marrow bean (Variety: Thailand Jiadouwang) was cultured in pots in a greenhouse, and inoculated with E. polygoni at the stage of 4 leaves. The first application was started at the early onset (onset at the first true leaf: first appearance of spots), comprising 10% of 3-(3',4'-methylenedioxy phenyl)-N-n-propyl acrylamide EC and 14% of 3-(3',4'-methylenedioxy phenyl)-piperidine acrylate EC, which were both diluted at three concentrations of 0.20, 0.143, 0.10 mg/mL (active ingredients), the control agent, 12.5% of myclobutanil EC (North China pharmaceutical Group, Ainuo Co. Ltd.), was also diluted at three concentrations of 0.20, 0.143, 0.10 mg/mL (active ingredients), additionally clear water was used as the control. Both sides of the leaves were sprayed evenly with a small hand-held sprayer so that the leaves were wetted by the liquor without loss. Applications were conducted every 7 days consecutively for 4 times. 10 days after the fourth application, the number of sick leaves at each grade of powdery mildew was investigated for the whole plant following the grading standard of 9 grades, to calculate the disease index and the control effect.

[4] = tested on: Erysiphe cucurbitacearum or Sphaerotheca cucurbitae; assay: In-vivo greenhouse control of zucchini powdery mildew
Description: as §2, §3
Zucchini (Variety: Wuwei Xianglin extra-early 1st generation) was cultured in pots in a greenhouse, and inoculated with Erysiphe cucurbitacearum or Sphaerotheca cucurbitae at the stage of 3 to 4 leaves. The first application was started at the early onset (onset at the first true leaf: first appearance of spots), comprising 10% of 3-(3',4'-methylenedioxy phenyl)-N-n-propyl acrylamide EC and 14% of 3-(3',4'-methylenedioxy phenyl)-piperidine acrylate EC, which were both diluted at four concentrations of 0.50, 0.333, 0.25, 0.20 mg/mL (active ingredients), additionally clear water was used as the control. Both sides of the leaves were sprayed evenly with a small hand-held sprayer so that the leaves were wetted by the liquor without loss. Applications were conducted every 7 days consecutively for 4 times. 10 days after the fourth application, the number of sick leaves at each grade of powdery mildew was investigated for the whole plant following the grading standard of 9 grades, to calculate the disease index and the control effect. The computational formula is as below: Disease index = [(Number of sick leaves at each grade×Corresponding grade value)/(Total number of investigated leaves×9)] × 100; [formula] Control effect = (Disease index of the clear water control−Treated disease index)/Disease index of the clear water control × 100. [formula]

Oidium lini = assay: Field efficiency test, flax powdery mildew; type: in vivo; settings: 0.50 mg/mL (active ingredients)
Description: (§4) The formulation of emulsifiable concentrate is the same as that in Embodiment 3.
The variety of flax is Zhangya No. 2. 10% of 3-(3',4'-methylenedioxy phenyl)-N-n-propyl acrylamide EC and 14% of 3-(3',4'-methylenedioxy phenyl)-piperidine acrylate EC were both diluted at a concentration of 0.50 mg/mL (active ingredients); the control agent, 430 g/L of tebuconazole SC, was also diluted at a concentration of 0.50 mg/mL (active ingredients); additionally clear water was used as the control. The first application was started at the first appearance of spots for flax powdery mildew (Oidium lini) (natural incidence), and the second application was carried out 10 days later. The instrument for application was a WS-18D knapsack electric sprayer, which employed a cone nozzle. Each agent was formulated into the desired concentrations according to the usage amount of the control clear water. Both sides of the leaves were sprayed evenly. 10 days after the second application, the number of sick leaves at each grade of powdery mildew was investigated for the whole plant following the grading standard of 9 grades, to calculate the disease index and the control effect.

Pyricularia grisea = assay: microbe, parasite or virus in culture; type: cell-based; settings: for Average Diameter of the Colony: 1 mg/mL; for inhibition at 1000 µg/mL: read-out: Inhibition Rate
zucchini powdery mildew = assay: Field efficiency test, zucchini powdery mildew; type: in vivo; settings: 0.50 mg/mL (active ingredients)
From the text: as §4, §1

[5] = 0.10 mg/mL (active ingredients)
[6] = 0.143 mg/mL (active ingredients)
[7] = 0.20 mg/mL (active ingredients)
[8] = 0.333 mg/mL (active ingredients)
[9] = 0.50 mg/mL (active ingredients), spray every 7 days, 4 times

Structure (SMILES) | Average Diameter of the Colony (Phytophthora infestans [1]) | safety for zucchini, cucumber, flax, and tomato [2] | Average Diameter of the Colony (Phytophthora infestans [3]) | Average Diameter of the Colony (Fusarium graminearum) | inhibition at 1000 µg/mL (Fusarium graminearum) | Control Effect (E. polygoni; [5]) | Control Effect (E. polygoni; [6]) | Control Effect (E. polygoni; [7]) | Control Effect [4, 8] | Control Effect [4, 9] | Control Effect (Oidium lini) | Average Diameter of the Colony (Pyricularia grisea) | inhibition at 1000 µg/mL (Pyricularia grisea) | Control Effect (zucchini powdery mildew)
CCCNC(=O)/C=C/c1ccc2c(c1)OCO2 [3-(3',4'-methylenedioxyphenyl)-N-n-propyl acrylamide] | 0.00 cm | safe for zucchini, cucumber, flax, and tomato | 2.05 cm | 2.27 cm | 57.6% | 84.19% | 92.58% | 93.53% | 77.13% | 91.09% | 83.70% | 5.30 cm | 41.1% | 60.24%
O=C(/C=C/c1ccc2c(c1)OCO2)N1CCCCC1 [3-(3',4'-methylenedioxyphenyl)-piperidine acrylate] | 0.00 cm | safe for zucchini, cucumber, flax, and tomato | 0.81 cm | 0.53 cm | 90.1% | 74.97% | 89.40% | 91.55% | 67.06% | 67.06% and 87.13% | 41.82% | 1.60 cm | 82.2% | 30.04%
